In assay [1] the target is T1, AvGluR1 LBD (Adineta vaga, UniProt E9P5T5, INS567GT).
T1 sequence (E9P5T5 with tags, fused parts or gaps INS567GT): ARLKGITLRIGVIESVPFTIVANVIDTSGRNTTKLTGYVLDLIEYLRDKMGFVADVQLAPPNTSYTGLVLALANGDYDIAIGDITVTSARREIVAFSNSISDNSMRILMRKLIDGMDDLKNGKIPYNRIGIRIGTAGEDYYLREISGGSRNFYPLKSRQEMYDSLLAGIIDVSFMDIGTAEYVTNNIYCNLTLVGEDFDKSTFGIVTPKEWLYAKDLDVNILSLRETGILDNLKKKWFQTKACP
The assay is described as follows: biochemical. Format: binding. To be noted: for binding affinity: β-carbon branched amino acids.

Assay [2] deals with AvGluR1. To be noted: prior studies; ref Janovjak et al., 2011; cited from earlier work.
Assay [3] concerns AvGluR1. Format: cell-based, Adineta vaga. To be noted: for time constant of onset of desensitization (Figure 2A traces): 2.8 mM alanine; for amplitude of response relative to glutamate: normalized to 60 μM glutamate in the same oocyte.
The target of assay [4] is T1, AvGluR1 LBD. The assay is described as follows: Competitive displacement of 100 nM [3H] L-glutamate by 100 μM amino acids. The assay is classed as binding. To be noted: 100 μM competing amino acid.
For assay [5], the target named is T1, AvGluR1 LBD. The assay is described as follows: Competitive displacement of [3H] L-glutamate with NaCl substituted by HEPES. The assay is classed as binding. In general terms: Loss of bound radioactivity is the signal in a displacement assay; it reports binding, not function.
The target of assay [6] is GluR0 from Synechocystis. To be noted: read-out: Kd for glutamate, ref Chen et al., 1999; cited from earlier work.
Assay [7] has as its target T1, AvGluR1 LBD. Put plainly: Saturation binding of [3H] L-glutamate to AvGluR1 LBD apo protein.
[8] abbreviates: displacement of 100 nM [3H] L-Glu, NaCl buffer.
[9] abbreviates: Kd, displacement of 100 nM [3H] L-Glu, NaCl buffer.
Setting [10] is: ligand applied at 300 times the Kd.
[11] abbreviates: Kd in Cl−, competitive displacement of [3H] L-glutamate, NaCl reaction buffer.

Values joined by “and” are separate entries in the source; they are usually repeats but may differ in a detail not shown here. Equal values may be shown once.

A word on the Kd: it is a measure of binding affinity in units of concentration.

For `NC(CCCP(=O)(O)O)C(=O)O` (stereo not shown) [AP5], the dissociation constant (Kd) in assay [1] (setting [8]) was found to be 530 µM. The compound `NC(=O)C[C@H](N)C(=O)O` [asparagine] had a Kd in assay [1] (setting [9]) of 81 µM. Turning to `Cc1o[nH]c(=O)c1CC(N)C(=O)O` (stereo not shown) [AMPA], the “activation of AvGluR1 (ligand activated ion currents)” value (shortened to “activation of AvGluR1”) in assay [2] is “activation”. Besides, the Kd in assay [1] (setting [8]) was found to be 130 µM. Compound `N[C@@H](Cn1oc(=O)[nH]c1=O)C(=O)O` [quisqualate] showed a Kd in assay [1] (setting [9]) of 39 µM. Turning to `C=C(C)[C@H]1CN[C@H](C(=O)O)[C@H]1CC(=O)O` [kainate], the “activation of AvGluR1” value in assay [2] is “activation”. Also, binding in assay [1] (setting [8]) was characterised by a dissociation constant (Kd) of 2700 µM. `Cc1cn(C[C@H](N)C(=O)O)c(=O)n(Cc2ccsc2C(=O)O)c1=O` [UBP-310]: the Kd in assay [1] (setting [8]) was found to be 160 µM. The same measure, in the same setting: in the case of `CN[C@H](CC(=O)O)C(=O)O` [NMDA] it was 9900 µM. `C[C@H](N)C(=O)O` [alanine]: the “time constant of onset of desensitization (Figure 2A traces)” value in assay [3] (60 μM glutamate) is 1.0 s. In the case of `N[C@@H](CO)C(=O)O` [serine], the “activation of AvGluR1” value in assay [2] was “activation”. Consider `N[C@@H](CC(=O)O)C(=O)O` [aspartate], for which, in assay [2], the “activation of AvGluR1” value is on record as “activation”. The “effect on binding of 100 nM [3H] L-glutamate” value in assay [4] was “abolished”. `CSCC[C@H](N)C(=O)O` [methionine]: the “amplitude of response relative to glutamate” value in assay [3] (setting [10]) is 64 ± 7%. In addition, the Kd in assay [5] was found to be 270 ± 52 µM; in assay [1] (setting [11]) it was 15.1 ± 2.5 µM; in assay [1] (setting [9]), 15 µM. As for `CC[C@H](C)[C@H](N)C(=O)O` [isoleucine], the “binding affinity” value in assay [1] is given as “low affinity”. Same read-out and setting: to `CC(C)[C@H](N)C(=O)O` [valine] belongs “low affinity”.

Regarding `N[C@H](CCC(=O)O)C(=O)O` [D-Glu], the dissociation constant (Kd) in assay [1] (setting [8]) turned out to be 130 µM.

In the case of `C[C@H](C[C@H](N)C(=O)O)C(=O)O` [SYM2081, 2S,4R-4-methyl glutamate], in assay [1] (comparator not given), the “fold lower affinity for AvGluR1” value turned out to be 250 fold. Besides, binding in assay [1] (setting [8]) was characterised by a dissociation constant (Kd) of 49.5 µM. As for `C[C@@H](O)[C@H](N)C(=O)O` [threonine], the “binding affinity” value in assay [1] was “low affinity”. As for `NC(=O)CC[C@H](N)C(=O)O` [glutamine], the Kd in assay [1] (setting [9]) was found to be 37 µM. Consider `N[C@@H](Cc1ccccc1)C(=O)O` [phenylalanine], for which the “amplitude of response relative to glutamate” value in assay [3] (setting [10]) was determined as 33 ± 6%. `N[C@@H](CCC(=O)O)C(=O)O` [glutamate, L-glutamate]: the Kd is 0.193 µM in assay [6]; 0.203 ± 0.018 µM in assay [7]; 0.3 ± 0.04 µM in assay [5]; 0.27 ± 0.02 µM in assay [1] (setting [11]); 0.203 µM in assay [1] (Kd, sequence of Kd values, Figure 1C and Table S1). Also, in assay [2], the “activation of AvGluR1” value is “activation”. Moreover, in assay [3] (60 μM glutamate), the 10-90% rise time is on record as 240 ± 67 ms. Further, the “time constant of desensitization (single exponential)” value in assay [3] (60 μM glutamate) amounted to 626 ± 255 ms. Further, in assay [3] (60 μM glutamate), the “time constant of onset of desensitization (Figure 2A traces)” value came to 1.25 s. In assay [3] (60 μM glutamate, mean ± SD, n = 9), this compound came in with an inward current amplitude of 5.1 ± 1.4 μA. Further, in assay [3] (60 μM glutamate, twin pulse protocol), the “time constant of recovery from desensitization” value is 26 s and 25.7 s. For the same compound, the “time constant of onset of desensitization” value in assay [3] (100 μM glutamate, wild type AvGluR1 control response (Figure 7D)) was determined as 460 ms. In assay [3] (setting [10]), the “extent of desensitization” value is “complete desensitization”. For the same compound, in assay [4], the “effect on binding of 100 nM [3H] L-glutamate” value is listed as “abolished”. As for `O=[N+]([O-])c1cc2nc(O)c(O)nc2cc1[N+](=O)[O-]` [DNQX], the Kd in assay [1] (setting [8]) stood at 250 µM. In the case of concanavalin A, the “effect on AvGluR1 desensitization” value in assay [3] (0.5 mg/ml for 4 minutes) is listed as “strongly attenuated”.

With `N[C@@H](CS)C(=O)O` [cysteine], the “amplitude of response relative to glutamate” value in assay [3] (setting [10]) is reported as 86 ± 8%. Besides, binding in assay [1] (setting [9]) was characterised by a dissociation constant (Kd) of 46 µM.

(Values after article PMC4096996 (Structure (London, England : 1993), 2013).)
